# Source: patent publication US11981953B2, “Method to screen compounds for antifungal activity and pharmaceutical compositions and methods to treat fungal diseases by inhibiting spore germination” (WISCONSIN ALUMNI RESEARCH FOUNDATION, priority 2018, dated 2024)
# Experiments:
# [1] = test system: Aspergillus Fumigatus (AF293); assay: Aspergillus fumigatus MIC on conidia; type: cell-based; conditions: testing performed on conidia
# Experimental: Conidia at a final concentration of 2×10^4 cells were incubated in RPMI, 0.33 M MOPS, and 2% glucose at pH 7 at varying concentrations of inhibitors, with a final volume of 200 μL.
# [2] = test system: Cryptococcus neoformans spores (JEC20 x JEC21); assay: Quantitative germination assay (microfluidic devices, cell size and shape); type: cell-based
# Experimental: All germination assays are based on Barkal et al., 2016. Briefly, microfluidic devices were loaded with 1×10^5 spores, and at 0 hours, SD media with drug of interest, were added to the sample. Spores were allowed to germinated at 30° C. in a humidified chamber and cells were monitored every two (2) hours for 16 hours. Each assay was performed in two (2) individual wells with three (3) field of views acquired from each well. All images were analyzed as previously described based on cell shape and size. Population ratio of spores, intermediate, and yeast cells were determined. Error bars in plots are based on variation between all fields of view acquired. […] After the 16-hour experiment, samples were plated on YPD and allowed to grow at 30° C. to determine if drugs were completely germicidal or not based on lack of growth. If assays were unable to be performed in microfluidic devices, the […] spores were incubated in identical conditions outside of PDMS devices and only loaded into devices for image acquisition.
# [3] = test system: JEC20×JEC21 yeast or spores in mouse lung; assay: Fungal burden animal studies (mouse lung colony-forming units); type: in vivo, Cryptococcus neoformans; conditions: for Lung fungal burden (colony-forming units) versus PBS-treated mice: 4 mg/kg/day intranasal for three days from 1-day post-infection, lungs day 4
# Experimental: All yeast cells were cultured overnight in YPD, washed and diluted to 5×10^6 cells. For JEC20 and JEC21, 2.5×10^6 cells of each were combined. Spores were cultured as previously described and diluted to 2×10^6 cells. All experiments were performed on 8- to 10-week old C57BL/6J (Jackson Laboratory, Bar Harbor, Me., USA) female mice (5 mice per group). All mice were infected intranasally with a total of 50 μL. All dosing was performed with 4 mg/kg/day or 1×PBS for three (3) days either prior to infection or 1-day post-infection. Mice were sacked day-4 post-infection and lungs were collected, processed, and fungal burden was assessed.
# Pentamidine is a successful inhibitor of Cryptococcus neoformans yeast replication in vitro. For repurposing potential, it is important to determine drug efficacy in vivo. For this purpose, the ability of pentamidine to lower the fungal burden in mouse lungs infected by both spores and yeast was determined. One-day post-infection intranasal dosing was begun at 4 mg/kg/day and the mice were treated for three consecutive days. On the fourth day post-infection, lungs were collected and fungal burden was determined. […] See FIG. 8A and FIG. 8B, respectively.
# Pentamidine is a successful inhibitor of spore germination in vitro. It is important, though, to determine drug efficacy in vivo. Therefore, the ability of pentamidine to inhibit germination of spores in mouse lungs was determined. […], mice were infected with JEC20×JEC21 spores and 4-days post infection, mouse lungs were collected and lung fungal burden was determined.
# [4] = test system: JEC20-GFPxJEC21-GFP spores in mouse lung; assay: In vivo germination (cells recovered from mouse lungs 8 hours post infection); parameters: species or system Cryptococcus neoformans; conditions: prophylactic 4 mg/kg/day for three days; cells recovered 8 hours post infection
# Experimental: Female mice, 8- to 10-week-old C57BL/6J (Jackson Laboratory) female mice (3 mice per group) were used. Mice were dosed with either 4mg/kg/day or 1×PBS (50 μL) for three (3) consecutive days. Mice were intranasally infected with 2×10^6 JEC20-GFPxJEC21-GFP spores, strains described in Walsh et al., 2018. After 8 hours post-infection, mice were sacked and lavaged with 0.05% TirtonX in 1×PBS. Lavage suspension underwent a series of treatments and washes, in order: red blood cell lysis (ACK lysing buffer, 2 mL, 5 minutes), formaldehyde fixation (4%, 500 μL, 30 minutes) and calcofluor white staining (25 μg/mL, 20 μL for 1 minute). Cells (50-100 per mouse) were imaged, and identified as Cryptococcus neoformans cells based on green fluorescent signal or cyan staining from calcofluor staining. Cells surface area and aspect ratio were measured in ImageJ and cells were classified as spores, intermediates, or yeast based on size and shapes parameters used in the quantitative germination assay.
# In vivo spore germination has never been characterized mainly due to technical hurdles. Using a novel assay, Cryptococcus neoformans cells were recovered from prophylactically treated, spore-infected mouse lungs 8 hours post infection. […] Based on size and shape of the cells, the level of in vivo spore germination was quantified.
smiles,measurement,setting,value
N=C(N)c1ccc(OCCCCCOc2ccc(C(=N)N)cc2)cc1 [Pentamidine],Ability to inhibit Aspergillus fumigatus,[1],unable to inhibit
same,Germicidal activity,[2]; 50 μg/mL,showed germicidal activity
same,Spore germination over a range of concentrations,[2]; as concentrations increased,spore germination became slower
same,Germicidal activity,[2]; lower concentration,not germicidal
same,Spore escape from inhibition (words),"[2]; yeast population increase = escape, listed as pentamidine",no individual spores were able to escape inhibition
same,Lung fungal burden after prophylaxis versus 1×PBS,"[3]; 4 mg/kg/day for three consecutive days prior to infection with JEC20×JEC21 spores, lungs 4-days post infection, FIG. 9, p<0.01",successful in decreasing spore-mediated lung burden
same,Lung fungal burden (colony-forming units) versus PBS-treated mice,"[3]; spore-infected C57BL/6J mice, FIG. 8B, p<0.01",significantly lower fungal burdens in the lung
same,Lung fungal burden (colony-forming units) versus PBS-treated mice,"[3]; yeast-infected C57BL/6J mice, FIG. 8A, p<0.05",significantly lower fungal burdens in the lung
same,"Level of in vivo spore germination (spore, intermediate, yeast percent)",[4],higher spore percent and a lower yeast percent
